What was measured:
[1] = molecular target: T1, Dimer of Gag-Pol polyprotein [489-587] (Human immunodeficiency virus 1, UniProt P12497); assay: Protease Inhibition Assay
T1 construct: 489-587
Procedure: (§1) Sensitivity of HIV-1 protease activity to protease inhibitors was determined by a peptide substrate cleavage assay. Protease products were analyzed on a reverse-phase high-pressure liquid chromatograph.

[2] = molecular target: T2, Gag-Pol polyprotein [489-587] (Human immunodeficiency virus 1, UniProt P04585)
T2 construct: 489-587

[3] = molecular target: T2, Gag-Pol polyprotein [489-587]; assay: Protease Inhibition Assay
Procedure: as §1

| Compound | Ki [2] | IC50 ([1]; pH 6.2, 37 °C) | IC50 [3] | also measured |
| --- | --- | --- | --- | --- |
| Cc1cc(SC2C(=O)CC(CCc3ccc(O)cc3)(C(C)C)OC2=O)c(C(C)(C)C)cc1NS(=O)(=O)c1cccc(C#N)c1 (stereo unspecified) | 0.21 nM | – | – | Ki ([1]; pH 6.2, 37 °C): 0.21 nM |
| Cc1cc(SC2C(=O)CC(CCc3ccc(O)cc3)(C(C)C)OC2=O)c(C(C)(C)C)cc1N (stereo unspecified) | 0.67 nM | 2.7 nM | 2.7 nM | Ki ([1]; pH 6.2, 37 °C): 0.67 nM |
| Cc1cc(SC2C(=O)CC(CCc3ccc(O)cc3)(C(C)C)OC2=O)c(C(C)(C)C)cc1NS(=O)(=O)c1ccc(C#N)cc1 (stereo unspecified) [N-[5-tert-butyl-4-({4-hydroxy-6-[2-(4-hydroxyphenyl)ethyl]-2-oxo-6-(propan-2-yl)-5,6-dihydro-2H-pyran-3-yl}sulfanyl)-2-methylphenyl]-4-cyanobenzene-1-sulfonamide] | 0.41 nM | 2.2 nM | 2.2 nM | Ki ([1]; pH 6.2, 37 °C): 0.41 nM |
| Cc1cc(SC2C(=O)CC(CCc3ccccc3)(C(C)C)OC2=O)c(C(C)(C)C)cc1NS(C)(=O)=O (stereo unspecified) | 0.83 nM | – | – | Ki ([1]; pH 6.2, 37 °C): 0.83 nM |
| Cc1cc(SC2C(=O)C[C@@](CCc3ccc(O)cc3)(C(C)C)OC2=O)c(C(C)(C)C)cc1NS(=O)(=O)c1ccc(C(F)(F)F)cn1 (stereo partly drawn) [N-(5-tert-butyl-4-{[(6S)-4-hydroxy-6-[2-(4-hydroxyphenyl)ethyl]-2-oxo-6-(propan-2-yl)-5,6-dihydro-2H-pyran-3-yl]sulfanyl}-2-methylphenyl)-5-(trifluoromethyl)pyridine-2-sulfonamide] | 0.39 nM | – | – | Ki [1]: 0.39 nM |
| Cc1cc(SC2C(=O)CC(CCc3ccc(O)cc3)(C3CCCCC3)OC2=O)c(C(C)(C)C)cc1OS(=O)(=O)c1ccccc1 (stereo unspecified) [5-tert-butyl-4-({6-cyclohexyl-4-hydroxy-6-[2-(4-hydroxyphenyl)ethyl]-2-oxo-5,6-dihydro-2H-pyran-3-yl}sulfanyl)-2-methylphenyl benzenesulfonate] | – | – | 131 nM | IC50 [1]: 130 nM |
| Cc1cc(SC2C(=O)CC(C)(CCc3ccc(O)cc3)OC2=O)c(C(C)(C)C)cc1NS(=O)(=O)c1ccc(C#N)cc1 (stereo unspecified) | – | 2.1 nM | 2.1 nM | – |
| Cc1cc(SC2C(=O)CC(CCc3ccc(O)cc3)(C(C)C)OC2=O)c(C(C)(C)C)cc1NS(=O)(=O)c1cccnc1 (stereo unspecified) | – | 2.6 nM | 2.6 nM | – |
| Cc1cc(SC2C(=O)CC(CCc3ccc(O)cc3)(C(C)C)OC2=O)c(C(C)(C)C)cc1NS(=O)(=O)c1ccc(C(F)(F)F)cc1 (stereo unspecified) [N-[5-tert-butyl-4-({4-hydroxy-6-[2-(4-hydroxyphenyl)ethyl]-2-oxo-6-(propan-2-yl)-5,6-dihydro-2H-pyran-3-yl}sulfanyl)-2-methylphenyl]-4-(trifluoromethyl)benzene-1-sulfonamide] | – | 18.3 nM | 18.3 nM | – |
| CCNS(=O)(=O)Nc1cc(C(C)(C)C)c(SC2C(=O)CC(CCc3ccc(O)cc3)(C(C)C)OC2=O)cc1C (stereo unspecified) | – | – | 1.7 nM | IC50 [1]: 1.7 nM |
| Cc1cc(SC2C(=O)CC(CCc3ccc(O)cc3)(C3CCCC3)OC2=O)c(C(C)(C)C)cc1NS(=O)(=O)c1ccccc1 (stereo unspecified) [N-[5-tert-butyl-4-({6-cyclopentyl-4-hydroxy-6-[2-(4-hydroxyphenyl)ethyl]-2-oxo-5,6-dihydro-2H-pyran-3-yl}sulfanyl)-2-methylphenyl]benzenesulfonamide] | – | 8.6 nM | 8.6 nM | – |
| Cc1cc(SC2C(=O)CC(CCc3ccccc3)(C(C)C)OC2=O)c(C(C)(C)C)cc1N (stereo unspecified) | – | 3.6 nM | 3.6 nM | – |
| Cc1cc(SC2C(=O)CC(CCc3ccccc3)(C(C)C)OC2=O)c(C(C)(C)C)cc1O (stereo unspecified) | 1.1 nM | – | – | – |
| Cc1cc(SC2C(=O)CC(C)(CCc3ccc(O)cc3)OC2=O)c(C(C)(C)C)cc1NS(=O)(=O)c1ccccc1 (stereo unspecified) [N-[5-tert-butyl-4-({4-hydroxy-6-[2-(4-hydroxyphenyl)ethyl]-6-methyl-2-oxo-5,6-dihydro-2H-pyran-3-yl}sulfanyl)-2-methylphenyl]benzenesulfonamide] | – | 1.5 nM | 1.5 nM | – |
| Cc1cc(SC2C(=O)CC(CCc3ccc(O)cc3)(C(C)C)OC2=O)c(C(C)(C)C)cc1OS(=O)(=O)c1ccc(F)cc1 (stereo unspecified) | – | – | 9.6 nM | IC50 [1]: 9.6 nM |
| Cc1cc(SC2C(=O)C[C@@](CCc3ccccc3)(C(C)C)OC2=O)c(C(C)(C)C)cc1NS(=O)(=O)c1ccc(C(F)(F)F)cn1 (stereo partly drawn) [N-(5-tert-butyl-4-{[(6S)-4-hydroxy-2-oxo-6-(2-phenylethyl)-6-(propan-2-yl)-5,6-dihydro-2H-pyran-3-yl]sulfanyl}-2-methylphenyl)-5-(trifluoromethyl)pyridine-2-sulfonamide] | 6.4 nM | – | – | Ki [1]: 0.31 nM |
| Cc1cc(SC2C(=O)CC(CCc3ccccc3)(C(C)C)OC2=O)c(C(C)(C)C)cc1NS(=O)(=O)c1cccc(C#N)c1 (stereo unspecified) [N-(5-tert-butyl-4-{[4-hydroxy-2-oxo-6-(2-phenylethyl)-6-(propan-2-yl)-5,6-dihydro-2H-pyran-3-yl]sulfanyl}-2-methylphenyl)-3-cyanobenzene-1-sulfonamide] | 1.4 nM | – | – | Ki ([1]; pH 6.2, 37 °C): 1.4 nM |

| Compound | Ki [2] | IC50 ([1]; pH 6.2, 37 °C) | IC50 [3] | also measured |
| --- | --- | --- | --- | --- |
| Cc1cc(SC2C(=O)CC(C)(CCc3ccc(O)cc3)OC2=O)c(C(C)(C)C)cc1N (stereo unspecified) [3-[(4-amino-2-tert-butyl-5-methylphenyl)sulfanyl]-4-hydroxy-6-[2-(4-hydroxyphenyl)ethyl]-6-methyl-5,6-dihydro-2H-pyran-2-one] | – | 13 nM | 13 nM | – |
| Cc1cc(SC2C(=O)C[C@@](CCc3ccc(O)cc3)(C(C)C)OC2=O)c(C(C)(C)C)cc1N (stereo partly drawn) [(6S)-3-[(4-amino-2-tert-butyl-5-methylphenyl)sulfanyl]-4-hydroxy-6-[2-(4-hydroxyphenyl)ethyl]-6-(propan-2-yl)-5,6-dihydro-2H-pyran-2-one] | 13 nM | – | – | Ki [1]: 0.07 nM |
| Cc1cc(SC2C(=O)CC(CCc3ccc(O)cc3)(C(C)C)OC2=O)c(C(C)(C)C)cc1NS(=O)(=O)c1ccccn1 (stereo unspecified) [N-[5-tert-butyl-4-({4-hydroxy-6-[2-(4-hydroxyphenyl)ethyl]-2-oxo-6-(propan-2-yl)-5,6-dihydro-2H-pyran-3-yl}sulfanyl)-2-methylphenyl]pyridine-2-sulfonamide] | – | 2.6 nM | 2.6 nM | – |
| Cc1cc(SC2C(=O)CC(CCc3ccccc3)(C(C)C)OC2=O)c(C(C)(C)C)cc1OS(=O)(=O)c1ccc(C#N)cc1 (stereo unspecified) | 0.7 nM | – | – | Ki [1]: 0.7 nM |
| Cc1cc(SC2C(=O)CC(CCc3ccccc3)(C(C)C)OC2=O)c(C(C)(C)C)cc1OS(=O)(=O)c1ccccn1 (stereo unspecified) [5-tert-butyl-4-{[4-hydroxy-2-oxo-6-(2-phenylethyl)-6-(propan-2-yl)-5,6-dihydro-2H-pyran-3-yl]sulfanyl}-2-methylphenyl pyridine-2-sulfonate] | – | – | 6.7 nM | IC50 [1]: 6.7 nM |
| Cc1cc(SC2C(=O)CC(CCc3ccccc3)(C(C)C)OC2=O)c(C(C)(C)C)cc1NS(=O)(=O)c1ccc(C(F)(F)F)cc1 (stereo unspecified) [N-(5-tert-butyl-4-{[4-hydroxy-2-oxo-6-(2-phenylethyl)-6-(propan-2-yl)-5,6-dihydro-2H-pyran-3-yl]sulfanyl}-2-methylphenyl)-4-(trifluoromethyl)benzene-1-sulfonamide] | 27 nM | – | – | Ki ([1]; pH 6.2, 37 °C): 27 nM |
| CCNS(=O)(=O)Nc1cc(C(C)(C)C)c(SC2C(=O)CC(CCc3ccccc3)(C(C)C)OC2=O)cc1C (stereo unspecified) | – | – | 3.3 nM | IC50 [1]: 3.3 nM |
| Cc1cc(SC2C(=O)CC(CCc3ccc(O)cc3)(C(C)C)OC2=O)c(C(C)(C)C)cc1NS(=O)(=O)c1ccc(Cl)cc1 (stereo unspecified) | – | 5.3 nM | 5.3 nM | – |
| Cc1cc(SC2C(=O)CC(CCc3ccc(O)cc3)(C(C)C)OC2=O)c(C(C)(C)C)cc1OS(=O)(=O)c1cccnc1 (stereo unspecified) | – | – | 3.5 nM | IC50 [1]: 3.5 nM |
| Cc1cc(SC2C(=O)CC(CCc3ccc(O)cc3)(C(C)C)OC2=O)c(C(C)(C)C)cc1NS(=O)(=O)c1ccc(F)cc1 (stereo unspecified) [N-[5-tert-butyl-4-({4-hydroxy-6-[2-(4-hydroxyphenyl)ethyl]-2-oxo-6-(propan-2-yl)-5,6-dihydro-2H-pyran-3-yl}sulfanyl)-2-methylphenyl]-4-fluorobenzene-1-sulfonamide] | – | 4.1 nM | 4.1 nM | – |
| Cc1cc(SC2C(=O)CC(CCc3ccc(O)cc3)(C3CCCCC3)OC2=O)c(C(C)(C)C)cc1OS(=O)(=O)c1ccc(C#N)cc1 (stereo unspecified) | – | – | 21 nM | IC50 [1]: 21 nM |
| Cc1cc(SC2C(=O)CC(CCc3ccc(O)cc3)(C3CC3)OC2=O)c(C(C)(C)C)cc1NS(=O)(=O)c1ccccc1 (stereo unspecified) [N-[5-tert-butyl-4-({6-cyclopropyl-4-hydroxy-6-[2-(4-hydroxyphenyl)ethyl]-2-oxo-5,6-dihydro-2H-pyran-3-yl}sulfanyl)-2-methylphenyl]benzenesulfonamide] | – | 3.6 nM | 3.6 nM | – |
| Cc1cc(SC2C(=O)CC(CCc3ccc(O)cc3)(C(C)C)OC2=O)c(C(C)(C)C)cc1NS(C)(=O)=O (stereo unspecified) | – | 4 nM | 4 nM | – |
| Cc1cc(SC2C(=O)CC(C)(CCc3ccc(O)cc3)OC2=O)c(C(C)(C)C)cc1OS(=O)(=O)c1ccccc1 (stereo unspecified) | – | – | 9.8 nM | IC50 [1]: 9.8 nM |
| Cc1cc(SC2C(=O)CC(C)(CCc3ccc(O)cc3)OC2=O)c(C(C)(C)C)cc1NS(=O)(=O)c1ccc(Cl)cc1 (stereo unspecified) [N-[5-tert-butyl-4-({4-hydroxy-6-[2-(4-hydroxyphenyl)ethyl]-6-methyl-2-oxo-5,6-dihydro-2H-pyran-3-yl}sulfanyl)-2-methylphenyl]-4-chlorobenzene-1-sulfonamide] | – | 3.5 nM | 3.5 nM | – |
| Cc1cc(SC2C(=O)CC(C)(CCc3ccc(O)cc3)OC2=O)c(C(C)(C)C)cc1NS(C)(=O)=O (stereo unspecified) | – | 9.7 nM | 9.7 nM | – |
| Cc1cc(SC2C(=O)CC(CCc3ccc(O)cc3)(C(C)C)OC2=O)c(C(C)(C)C)cc1OS(=O)(=O)c1ccc(C#N)cc1 (stereo unspecified) [5-tert-butyl-4-({4-hydroxy-6-[2-(4-hydroxyphenyl)ethyl]-2-oxo-6-(propan-2-yl)-5,6-dihydro-2H-pyran-3-yl}sulfanyl)-2-methylphenyl 4-cyanobenzene-1-sulfonate] | – | – | 4.5 nM | IC50 [1]: 4.5 nM |

— BindingDB's records for doi:10.1021/jm990281p (Parke-Davis Pharmaceutical Research, 2000)
